Assays:
Assay type in all cases: cell-based
[1] = target: T1, human EDG8 (S1PR5) receptor (Homo sapiens, UniProt Q9H228); test: Method 2: Aequorin assay, cell clone CHO-A21-EDG8 #12; settings: agonist potency, determined with method 2 (symbols E-G); read-out: S1P5 EC50 range
T1 construct: expressed in transfected cells; host or cells: CHO (clone CHO-A21-EDG8 #12)
Method: (§1) Agonistic activity was measured using two different methods, described below.
(§2) Genetically Engineered Cells
(§3) Cell clone CHO-A21-Edg1 #17 carries the transgenes human EDG1 (S1PR1) receptor (Accession number NP_001391.2), mitochondrially targeted Aequorin (active part corresponds to accession number 1SL8_A) and chimaeric Gaqi5=Gaq modified with the 5 C-terminal amino-acids replaced with those of the Gai protein (DCGLF). CHO-A2-S1P3 Mix is a cell pool ectopically expressing human EDG3 (S1PR3) receptor (Accession number NP_005217.2) mitochondrially targeted Aequorin (active part has a sequence similar to accession number AY601106.1) and GNA16 (Accession number NP_002059.3). Cell clone CHO-A21-EDG8 #12 carries the transgenes human EDG8 (S1PR5) receptor (Accession number NP_110387.1), mitochondrially expressed Aequorin (active part corresponds to accession number 1SL8_A) and chimaeric Gaqi5 (Gaq modified to present the 5 last amino-acids of the Gai protein “DCGLF”; see above). Cells are grown to mid-log phase in culture medium (HAM's F12, 10% FBS, 100 IU/mL penicillin, 100 μg/mL streptomycin, 250 μg/mL Zeocin, 400 μg/mL G418). 18 hours prior to frozen cells preparation, the medium is changed to remove the antibiotics.
(§4) 18 hours prior to the test, vials of frozen cells are quickly thawed in a 37° C. water bath, cells are recovered by centrifugation and resuspended in assay buffer (DMEM/HAM's F12 with HEPES, without phenol red+0.1% fatty acid-free BSA). Cells are gently agitated in suspension overnight at RT in presence of 5 μM of Coelenterazine h (Molecular Probes). On the day of the test, cells are diluted to their final working concentrations in assay buffer and agitated in suspension for 1 h at RT. Cells are then placed in the luminescence reader (Hamamatsu Functional Drug Screening System 6000, FDSS6000). During cells incubation, compounds are prepared in 100% DMSO, and subsequently diluted in assay buffer. Compounds are then dispensed in the assay plate (black, clear-bottom, 384-well plate). After binding of agonists to the human S1P receptor the intracellular calcium concentration increases and binding of calcium to the Aequorin/Coelenterazine complex leads to an oxidation reaction of coelenterazine, which results in the production of […], coelenteramide, CO2 and light (Dmax 469 nm). The luminescent response is dependent on the agonist concentration. For agonist testing, 30 μL of cell suspension are injected on 30 μL of test compound or reference agonist in the assay plate. The resulting emission of light is recorded for 90 seconds using the FDSS6000. Dose response curves with the reference compounds are performed before testing the compounds. S1P is the reference agonist and JTE-013 the reference antagonist for S1P2. […]
(§5) Luminescence data are integrated over the reading interval for agonist and antagonist modes. To standardize the emission of recorded light (determination of the “100% signal”) across plates and across different experiments, some of the wells contain 100 μM digitonin or a saturating concentration of ATP (20 μM). Plates also contain the reference agonist at a concentration equivalent to the EC80 obtained during the test validation and the EC100. Dose-response data from test compounds were analyzed with XLfit (IDBS) software using nonlinear regression applied to a sigmoidal dose-response model and the following equation: • XL Fit fit Model 203: 4 Parameter Logistic Model • A: Bottom • B: TOP • C: LogEC50 • D: Hill fit=(A+((B−A)/(1+(((10^C)/x)^D)))) inv=((10^C)/((((B−A)/(y−A))−1)^(1/D))) res=(y−fit)

[2] = target: T2, human EDG3 (S1PR3) receptor (Homo sapiens, UniProt Q99500); test: Method 2: Aequorin assay, cell pool CHO-A2-S1P3 Mix; settings: (2): determined with method 2
T2 construct: expressed in transfected cells; host or cells: CHO (cell pool CHO-A2-S1P3 Mix)
Method: as §1, §2, §3, §4, §5

[3] = target: T3, human EDG1 (S1PR1) receptor (Homo sapiens, UniProt P21453); test: Method 2: Aequorin assay, cell clone CHO-A21-Edg1 #17; settings: (2): determined with method 2; read-out: S1P1 EC50
T3 construct: expressed in transfected cells; host or cells: CHO (clone CHO-A21-Edg1 #17)
Method: as §1, §2, §3, §4, §5

T2 sequence (Q99500 whole entry): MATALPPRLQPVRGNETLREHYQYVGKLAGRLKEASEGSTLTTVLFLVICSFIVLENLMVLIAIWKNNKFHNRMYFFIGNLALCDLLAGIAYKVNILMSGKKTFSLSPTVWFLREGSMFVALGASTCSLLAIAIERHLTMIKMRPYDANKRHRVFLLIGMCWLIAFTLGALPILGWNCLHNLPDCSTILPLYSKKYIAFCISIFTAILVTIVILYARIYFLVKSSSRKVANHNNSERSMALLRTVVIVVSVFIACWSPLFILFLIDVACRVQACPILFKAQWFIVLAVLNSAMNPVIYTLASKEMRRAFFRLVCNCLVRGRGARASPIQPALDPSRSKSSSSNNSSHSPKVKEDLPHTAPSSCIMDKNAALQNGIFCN
T1 sequence (Q9H228 whole entry): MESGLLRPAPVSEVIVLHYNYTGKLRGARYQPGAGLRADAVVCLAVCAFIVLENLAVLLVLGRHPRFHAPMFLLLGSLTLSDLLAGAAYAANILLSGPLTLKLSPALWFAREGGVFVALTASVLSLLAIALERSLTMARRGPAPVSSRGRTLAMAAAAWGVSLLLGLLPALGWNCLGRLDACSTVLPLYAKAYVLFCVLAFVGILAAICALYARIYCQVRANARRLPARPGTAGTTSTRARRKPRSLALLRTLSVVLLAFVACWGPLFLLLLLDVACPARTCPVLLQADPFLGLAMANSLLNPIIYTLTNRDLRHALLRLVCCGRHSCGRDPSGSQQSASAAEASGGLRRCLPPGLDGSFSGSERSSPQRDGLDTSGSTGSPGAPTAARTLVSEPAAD
T3 sequence (P21453 whole entry): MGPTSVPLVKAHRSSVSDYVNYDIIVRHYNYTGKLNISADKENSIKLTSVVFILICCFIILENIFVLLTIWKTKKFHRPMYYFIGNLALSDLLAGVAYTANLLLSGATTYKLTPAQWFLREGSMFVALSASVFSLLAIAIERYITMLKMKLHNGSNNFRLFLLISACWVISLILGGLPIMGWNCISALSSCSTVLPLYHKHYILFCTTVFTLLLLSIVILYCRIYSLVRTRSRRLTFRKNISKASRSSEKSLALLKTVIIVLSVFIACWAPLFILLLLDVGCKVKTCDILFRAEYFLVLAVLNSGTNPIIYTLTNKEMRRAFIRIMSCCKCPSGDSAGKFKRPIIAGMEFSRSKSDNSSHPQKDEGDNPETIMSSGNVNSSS

SMILES	EC50 [1] [nM]	EC50 [2] [nM]	EC50 [3] [nM]
O=C(O)CCN1Cc2ccc(-c3ccc(OCc4ccccc4)cc3)nc2C1 [Compound 202, 3-(2-(4-(benzyloxy)phenyl)-5H-pyrrolo[3,4-b]pyridin-6(7H)-yl)propanoic acid]	1000 to 10000	> 1000	> 1000
O=C(O)CCN1CCc2cc(-c3ccc(OCc4ccccc4)cc3)nnc2C1 [Compound 207, 3-(3-(4-(benzyloxy)phenyl)-5,6-dihydropyrido[3,4-c]pyridazin-7(8H)-yl)propanoic acid]	1000 to 10000	> 1000	> 1000
COc1cc(-c2ccc3c(n2)CCN(CCC(=O)O)C3)ccc1OCc1ccccc1 [Compound 142, 3-(2-(4-(benzyloxy)-3-methoxyphenyl)-7,8-dihydro-1,6-naphthyridin-6(5H)-yl)propanoic acid]	1000 to 10000	> 1000	> 1000
O=C(O)CCN1CCc2nc(-c3ccc(OCc4ccccc4)c(Cl)c3)ccc2C1 [Compound 144, 3-(2-(4-(benzyloxy)-3-chlorophenyl)-7,8-dihydro-1,6-naphthyridin-6(5H)-yl)propanoic acid]	100 to 1000	> 1000	> 1000
Cc1cc(-c2ccc3c(n2)CCN(CCC(=O)O)C3)ccc1OCc1ccccc1 [Compound 139, 3-(2-(4-(benzyloxy)-3-methylphenyl)-7,8-dihydro-1,6-naphthyridin-6(5H)-yl)propanoic acid]	100 to 1000	> 1000	> 1000
CC(CC(=O)O)N1CCc2nc(-c3ccc(OCc4ccccc4)cc3)ccc2C1 (stereo not drawn) [Compound 113, 3-(2-(4-(benzyloxy)phenyl)-7,8-dihydro-1,6-naphthyridin-6(5H)-yl)butanoic acid]	1000 to 10000	> 1000	> 1000
CC(CN1CCc2nc(-c3ccc(OCc4ccccc4)cc3)ncc2C1)C(=O)O (stereo not drawn) [Compound 6, 3-(2-(4-(benzyloxy)phenyl)-7,8-dihydropyrido[4,3-d]pyrimidin-6(5H)-yl)-2-methylpropanoic acid]	100 to 1000	> 1000	> 1000
O=C(O)CCN1CCc2nc(-c3ccc(OCc4ccccc4)c(F)c3)ccc2C1 [Compound 137, 3-(2-(4-(benzyloxy)-3-fluorophenyl)-7,8-dihydro-1,6-naphthyridin-6(5H)-yl)propanoic acid]	100 to 1000	> 1000	> 1000
CC(CC(=O)O)N1Cc2ccc(-c3ccc(OCc4ccccc4)cc3)nc2C1 (stereo not drawn) [Compound 200, 3-(2-(4-(benzyloxy)phenyl)-5H-pyrrolo[3,4-b]pyridin-6(7H)-yl)butanoic acid]	1000 to 10000	> 1000	> 1000
COc1cc(OCc2ccccc2)ccc1-c1ccc2c(n1)CCN(CCC(=O)O)C2 [Compound 138, 3-(2-(4-(benzyloxy)-2-methoxyphenyl)-7,8-dihydro-1,6-naphthyridin-6(5H)-yl)propanoic acid]	1000 to 10000	> 1000	> 1000
O=C(O)CCN1CCc2nc(-c3ccc(OCc4ccccc4F)c(Cl)c3)ccc2C1 [Compound 141]	100 to 1000	> 1000	> 1000
O=C(O)CCN1CCc2nc(-c3ccc(OCc4ccc(F)cc4)c(Cl)c3)ccc2C1 [Compound 140, 3-(2-(3-chloro-4-((4-fluorobenzyl)oxy)phenyl)-7,8-dihydro-1,6-naphthyridin-6(5H)-yl)propanoic acid]	100 to 1000	> 1000	> 1000
O=C(O)CCN1CCc2nc(-c3ccc(OCc4cccc(F)c4F)cc3)ncc2C1 [Compound 69, 3-(2-(4-((2,3-difluorobenzyl)oxy)phenyl)-7,8-dihydropyrido[4,3-d]pyrimidin-6(5H)-yl)propanoic acid]	1000 to 10000	> 1000	> 1000
Cc1cc(OCc2ccccc2)ccc1-c1ccc2c(n1)CCN(CCC(=O)O)C2 [Compound 135, 3-(2-(4-(benzyloxy)-2-methylphenyl)-7,8-dihydro-1,6-naphthyridin-6(5H)-yl)propanoic acid]	1000 to 10000	> 1000	> 1000

The next lines start with the values.

EC50 [1] [nM]	EC50 [2] [nM]	EC50 [3] [nM]	SMILES
100 to 1000	> 1000	> 1000	O=C(O)CCN1CCc2nc(-c3ccc(OCc4c(Cl)cccc4Cl)cc3)ccc2C1 [Compound 130, 3-(2-(4-((2,6-dichlorobenzyl)oxy)phenyl)-7,8-dihydro-1,6-naphthyridin-6(5H)-yl)propanoic acid]
100 to 1000	> 1000	> 1000	O=C(O)CCN1CCc2nc(-c3ccc(OCc4c(Cl)cccc4Cl)cc3)ncc2C1 [Compound 70, 3-(2-(4-((2,6-dichlorobenzyl)oxy)phenyl)-7,8-dihydropyrido[4,3-d]pyrimidin-6(5H)-yl)propanoic acid]
100 to 1000	> 1000	> 1000	O=C(O)CCN1CCc2nc(-c3ccc(OCc4ccccc4)cc3)ccc2C1 [Compound 129, 3-(2-(4-(benzyloxy)phenyl)-7,8-dihydro-1,6-naphthyridin-6(5H)-yl)propanoic acid]
100 to 1000	> 1000	> 1000	CC(CN1CCc2cc(-c3ccc(OCc4ccccc4)cc3)nnc2C1)C(=O)O (stereo not drawn) [Compound 206, 3-(3-(4-(benzyloxy)phenyl)-5,6-dihydropyrido[3,4-c]pyridazin-7(8H)-yl)-2-methylpropanoic acid]
< 100	> 1000	> 1000	O=C(O)CCN1CCc2nc(-c3ccc(OCc4cccc(F)c4F)cc3)ccc2C1 [Compound 131, 3-(2-(4-((2,3-difluorobenzyl)oxy)phenyl)-7,8-dihydro-1,6-naphthyridin-6(5H)-yl)propanoic acid]
100 to 1000	> 1000	> 1000	CC(CN1CCc2nc(-c3ccc(OCc4c(Cl)cccc4Cl)cc3)ncc2C1)C(=O)O (stereo not drawn) [Compound 7, 3-(2-(4-(2,6-dichlorobenzyloxy)phenyl)-7,8-dihydropyrido[4,3-d]pyrimidin-6(5H)-yl)-2-methylpropanoic acid]
100 to 1000	> 1000	> 1000	O=C(O)CCN1CCc2nc(-c3ccc(OCc4ccccc4)c(C(F)(F)F)c3)ccc2C1 [Compound 143, 3-(2-(4-(benzyloxy)-3-trifluoromethylphenyl)-7,8-dihydro-1,6-naphthyridin-6(5H)-yl)propanoic acid]
< 100	> 1000	> 1000	O=C(O)CCN1CCc2nc(-c3ccc(OCc4ccccc4F)cc3)ccc2C1 [Compound 132, 3-(2-(4-((2-fluorobenzyl)oxy)phenyl)-7,8-dihydro-1,6-naphthyridin-6(5H)-yl)propanoic acid]
100 to 1000	> 1000	> 1000	CC(CN1CCc2nc(-c3ccc(OCc4cc(F)cc(F)c4)cc3)ncc2C1)C(=O)O (stereo not drawn) [Compound 9, 3-(2-(4-((3,5-difluorobenzyl)oxy)phenyl)-7,8-dihydropyrido[4,3-d]pyrimidin-6(5H)-yl)-2-methylpropanoic acid]
< 100	> 1000	> 1000	O=C(O)CCN1CCc2nc(-c3ccc(OCc4ccccc4)cc3F)ccc2C1 [Compound 134, 3-(2-(4-(benzyloxy)-2-fluorophenyl)-7,8-dihydro-1,6-naphthyridin-6(5H)-yl)propanoic acid]

From patent US10556907B2 (AbbVie Inc., priority 2015, dated 2020)
